We go through 3 molecules from US8273562B2, “Method for producing 4-hydroxy-L-isoleucine” (Ajinomoto Co., Inc., priority 2006, dated 2012).

One data set has as its system human pancreatic islets. Conditions: stimulating effect dependent on plasma glucose concentrations; cited from earlier work.
Data set [1] concerns isolated perfused rat pancreas. Conditions: stimulating effect dependent on plasma glucose concentrations; cited from earlier work.
Data set [2] concerns the target T1, enzyme in 2-e-2 cell lysate (Bacillus thuringiensis, UniProt E2GIN1).
T1 construct: the collected and washed 2-e-2 cells were disrupted using a mortar; endogenous in cells; host or cells: Bacillus thuringiensis 2-e-2 cell lysate
In words: Effect of inhibitors on 4-hydroxyisoleucine production in the 2-e-2 cell lysate. The data set is classed as biochemical. Conditions: 10 mM inhibitor, pH 6, 30° C., 1 hour. Here is the method:
The cells were cultured in the AMKP medium until OD660 of 3.2 was achieved, then the collected and washed 2-e-2 cells were disrupted using a mortar, and suspended in a buffer (50 mM HEPES (pH 7.0), 10% of glycerol, Complete Mini (Roche)) until a suspension (lysate) is obtained having a protein concentration of about 10 mg/ml including centrifugation precipitates. The centrifugation precipitates were finally suspended in physiological saline of the same volume as the cell lysate. These were each mixed with an equal volume of a 2× dioxygenase reaction mixture (10 mM Ile, […], 10 mM 2-oxoglutaric acid, 10 mM ascorbic acid, 100 mM HEPES (pH 7.0)), and the reaction proceeded at 30° C. for 1 hour. Similarly, resting cells used for the preparation of the cell lysate were washed, and suspended in physiological saline at a concentration 10 times that in the culture broth, the suspension was mixed with an equal volume of the 2× dioxygenase reaction mixture, and the reaction proceeded.
By using a cell lysate prepared from 2-e-2 cells at OD660 of 7 according to the method described in <5>, the effects of inhibitors on the 4-hydroxyisoleucine production were examined. […] The dioxygenase reaction mixture contained 5 mM Ile, 5 mM Fe^2+, 5 mM 2-oxoglutaric acid, 5 mM ascorbic acid, and 100 mM HEPES (pH 6), the reaction temperature was 30° C., and the reaction time was 1 hour. The amount of 4-hydroxyisoleucine which was produced when 10 mM of each inhibitor (EDTA, Cu^2+, Zn^2+) was added to the reaction system was measured. 4-Hydroxyisoleucine was analyzed by the method described in <2>. The isoleucine hydroxylation activity was inhibited by the inhibitors.

For a further data set, the target named is T2, L-Ile hydroxylase (Bacillus thuringiensis, UniProt E2GIN1).
T2 construct: made in house; host or cells: Bacillus thuringiensis 2-e-2 (natural producer; enzyme purified by chromatography, not recombinant)
In words: Effects of inhibitors on 4-hydroxyisoleucine production by purified L-Ile hydroxylase. The data set is classed as biochemical. The conditions noted are these: 10 mM inhibitor; 4-hydroxyisoleucine production with no inhibitor = 100%; pH 6, 30° C., 1 hour. Here is the method: Each fraction was reacted using an Ile hydroxylation activity reaction mixture (100 mM HEPES (pH 6.0), 5 mM L-Ile, 5 mM Fe^2+, 5 mM 2-oxoglutaric acid, 5 mM ascorbic acid at final concentrations) at 30° C. for 30 minutes. The enzyme was inactivated at 100° C., and then the amount of 4-hydroxyisoleucine was quantified by the aforementioned AMKP and HIL separation and measurement method. The 4-hydroxyisoleucine referred to in the subsequent analysis indicates a substance that is substantially composed of the isomer having the same retention time as that of the naturally occurring 4-hydroxyisoleucine. The enzyme activity that produces 1 nmol of HIL per minute was defined as 1 U.
By using L-Ile hydroxylase prepared as described in Example 2, the effect of inhibitors on the production of 4-hydroxyisoleucine were examined. The enzymatic reaction solution contained 5 mM Ile, 5 mM Fe^2+, 5 mM 2-oxoglutaric acid, 5 mM ascorbic acid, and 100 mM HEPES (pH 6), the reaction temperature was 30° C., and the reaction time was 1 hour. The amount of 4-hydroxyisoleucine produced when 10 mM of each inhibitor (EDTA, Cu^2+, Zn^2+) was added to the reaction system was measured. These values are relative to the 4-hydroxyisoleucine production observed with no inhibitor, which was set as 100%. The isoleucine hydroxylation activity was lost in the presence of the inhibitors.

For the next data set, the target named is IDO(Lys,23) (Bacillus thuringiensis, UniProt E2GIN1).
Data set [3] can be described thus: IDO activity assay in crude cell lysate of recombinant E. coli strains. The data set is classed as biochemical, Escherichia coli. Here is the method:
2.4. The IDO activity assay in crude cell lysate of TG1[pMW119-IDO(Lys, 23) and TG1[pMW119-IDO(Lys, 32): To investigate the IDO activity in crude cell lysates of recombinant E. coli strains, the following procedures were carried out. Cells from 5 ml of culture were harvested by centrifugation at 4° C., re-suspended in 0.5 ml of buffer A*(50 mM TRIZMA, 5% glycerol, 1 mM EDTA, 1 mM DTT, pH 7 adjusted by HCl) and disrupted by sonication at 4° C. The reaction mixture (50 μl) contained 50 mM HEPES pH 7.0, 5 mM Ile, 0.5 mM α-ketoglutarate, 5 mM ascorbate, 5 mM FeSO4, and an aliquot of the protein preparation. The reaction was incubated at 34° C. for 1 hour with shaking. The synthesized 4HIL was detected using TLC or HPLC analysis as described in Example 4.

The nature of data set [4]: Optimum pH, optimum temperature and temperature stability of purified L-Ile hydroxylase. Conditions: enzyme solution pH 7.0 incubated 1 hour at 0 to 70° C. In kind it is biochemical, Bacillus thuringiensis. The procedure:
By using L-Ile hydroxylase prepared as described in Example 2, pH dependency on the producing of the 4-hydroxyisoleucine was evaluated. The enzymatic reaction solution contained 5 mM L-Ile, 5 mM Fe^2+, 5 mM 2-oxoglutaric acid, 5 mM ascorbic acid and 200 mM GTA (pH 3 to 12). The reaction temperature was 30° C. […] Production of a large amount was confirmed at pH 4 to 8, and production of the most 4-hydroxyisoleucine was confirmed at pH 5 to 8.
By using L-Ile hydroxylase prepared as described in Example 2, the optimum temperature of the 4-hydroxyisoleucine production activity was evaluated. The enzymatic reaction solution contained 5 mM Ile, 5 mM Fe^2+, 5 mM 2-oxoglutaric acid, 5 mM ascorbic acid, and 100 mM HEPES (pH 6). […] High production was confirmed for the temperature range of 0 to 40° C.
By using L-Ile hydroxylase prepared as described in Example 2, the temperature stability during production of 4-hydroxyisoleucine was evaluated. The enzyme solution at pH 7.0 was incubated at 0 to 70° C. for 1 hour, and then the Ile hydroxylation activity was measured. The enzymatic reaction solution contained 5 mM Ile, 5 mM Fe^2+, 5 mM 2-oxoglutaric acid, 5 mM ascorbic acid, and 100 mM HEPES (pH 6), and the reaction temperature was 30° C. These values are relative to the storage temperature which produced the maximum amount of hydroxyisoleucine, which was set as 100%. […]

With `C[C@@H]([C@H](C)O)[C@H](N)C(=O)O` [4-Hydroxy-L-isoleucine, (2S,3R,4S)-4-hydroxy-L-isoleucine], the insulinotropic activity entry (in the data set on human pancreatic islets; in data set [1]) was “insulinotropic activity” throughout.
For the molecule `O=C(O)CN(CCN(CC(=O)O)CC(=O)O)CC(=O)O` [EDTA], the “isoleucine hydroxylation activity in presence of inhibitor” value in data set [2] is “inhibited”. Also, on L-Ile hydroxylase, the “Relative activity (%)” value amounted to 0%. Besides, the “activity of IDO(Lys,23) in the presence of the substance” value on IDO(Lys,23) is given as “completely blocked”.

B1: L-Ile hydroxylase: L-isoleucine dioxygenase purified from Bacillus thuringiensis strain 2-e-2, SEQ ID NO: 2 (protein, listed as Bacillus thuringiensis)
chain: KMSGFSIEEKVHEFESKGFLEISNEIFLQEEENHSLLTQAQLDYYNLEDDAYGECRARSYSRYIKYVDSPDYILDNSNDYFQSKEYNYDDGGKVRQFNSINDSFLCNPLIQNIVRFDTEFAFKTNIIDKSKDLIIGLHQVRYKATKERPSFSSPIWLHKDDEPVVFLHLMNLSNTAIGGDNLIANSPREINQFISLKEPLETLVFGQKVFHAVTPLGTECSTEAFRDILLVTFSYKETK
Consider B1, for which, in data set [3], the “IDO activity in comparison with IDO(Lys,32)” value worked out at 5 times. Moreover, the “temperature at which enzyme was inactivated” value in data set [4] was no less than 60 °C.
